From ChEMBL document CHEMBL1122611, “Synthesis and in vitro biological evaluation of N-[(5-amino-1-beta-D-ribofuranosyl-1H-imidazol-4-yl)carbonyl]-3- (hydroxynitrosamino)-L-alanine (L-alanosine AICO ribonucleoside)” (1984)

Legend:
[1] = Evaluation of inhibitory activity of adenylosuccinate synthetase
[2] = Evaluation of inhibitory activity against adenylosuccinate synthetase
HL-60 = assay: In vitro evaluation of inhibitory activity of HL60 human promyelocytic tumor cell; type: functional; conditions: read-out: ED50 (the source's name)

Row | SMILES | ED50 [1] | ED50 [2] | EC50 (HL-60)
1 | Nc1c(C(=O)NC(CN(O)N=O)C(=O)O)ncn1[C@@H]1O[C@H](CO)[C@@H](O)[C@H]1O (stereo not given in full) | 0.3 µM | > 1000 µM | > 100 µM
2 | N[C@@H](CN(O)N=O)C(=O)O [LALANOSINE] |  | 7000 µM | 2 µM
